Reference: patent US9926281B2 (priority 2014, dated 2018)

Legend:
[1] = molecular target: human MMP13 (Homo sapiens (Human), UniProt P45452); details: read-out: hMMP-13 potency IC50
Experimental: Human MMP13 is preactivated by incubated the enzyme in the same buffer complemented with 1 mM freshly prepared p-Aminophenylmercuric acetate (AMPA) for 1 hour at 37° C.

[2] = molecular target: human TACE (Homo sapiens (Human), UniProt P78536); details: read-out: TACE potency IC50
[3] = molecular target: human ADAMTS-5 (Homo sapiens (Human), UniProt Q9UNA0); details: read-out: hADAMTS-5 potency IC50
Chain of human ADAMTS-5 (Q9UNA0 262-930): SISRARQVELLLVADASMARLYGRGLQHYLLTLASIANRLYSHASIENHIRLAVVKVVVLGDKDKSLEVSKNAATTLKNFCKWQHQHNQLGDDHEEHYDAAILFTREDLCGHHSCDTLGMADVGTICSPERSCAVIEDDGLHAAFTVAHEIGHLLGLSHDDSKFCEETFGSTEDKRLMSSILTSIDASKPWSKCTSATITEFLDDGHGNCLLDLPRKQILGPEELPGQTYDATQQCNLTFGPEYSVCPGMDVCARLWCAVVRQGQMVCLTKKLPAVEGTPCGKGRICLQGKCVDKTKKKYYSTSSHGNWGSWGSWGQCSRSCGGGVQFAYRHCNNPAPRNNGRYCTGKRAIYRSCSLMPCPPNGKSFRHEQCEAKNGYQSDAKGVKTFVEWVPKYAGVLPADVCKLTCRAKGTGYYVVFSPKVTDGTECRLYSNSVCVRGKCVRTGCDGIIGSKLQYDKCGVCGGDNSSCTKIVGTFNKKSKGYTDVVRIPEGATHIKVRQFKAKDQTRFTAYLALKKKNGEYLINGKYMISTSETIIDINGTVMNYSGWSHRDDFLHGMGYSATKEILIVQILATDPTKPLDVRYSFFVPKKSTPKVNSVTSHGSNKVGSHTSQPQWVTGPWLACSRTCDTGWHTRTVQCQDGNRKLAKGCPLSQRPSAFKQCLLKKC
Experimental: Finally, the fluorescence is read on the Envision (Perkin Elmer) after an incubation of 90 min at 37° C.

Chain of human TACE (P78536 whole entry, looked up, change not shown): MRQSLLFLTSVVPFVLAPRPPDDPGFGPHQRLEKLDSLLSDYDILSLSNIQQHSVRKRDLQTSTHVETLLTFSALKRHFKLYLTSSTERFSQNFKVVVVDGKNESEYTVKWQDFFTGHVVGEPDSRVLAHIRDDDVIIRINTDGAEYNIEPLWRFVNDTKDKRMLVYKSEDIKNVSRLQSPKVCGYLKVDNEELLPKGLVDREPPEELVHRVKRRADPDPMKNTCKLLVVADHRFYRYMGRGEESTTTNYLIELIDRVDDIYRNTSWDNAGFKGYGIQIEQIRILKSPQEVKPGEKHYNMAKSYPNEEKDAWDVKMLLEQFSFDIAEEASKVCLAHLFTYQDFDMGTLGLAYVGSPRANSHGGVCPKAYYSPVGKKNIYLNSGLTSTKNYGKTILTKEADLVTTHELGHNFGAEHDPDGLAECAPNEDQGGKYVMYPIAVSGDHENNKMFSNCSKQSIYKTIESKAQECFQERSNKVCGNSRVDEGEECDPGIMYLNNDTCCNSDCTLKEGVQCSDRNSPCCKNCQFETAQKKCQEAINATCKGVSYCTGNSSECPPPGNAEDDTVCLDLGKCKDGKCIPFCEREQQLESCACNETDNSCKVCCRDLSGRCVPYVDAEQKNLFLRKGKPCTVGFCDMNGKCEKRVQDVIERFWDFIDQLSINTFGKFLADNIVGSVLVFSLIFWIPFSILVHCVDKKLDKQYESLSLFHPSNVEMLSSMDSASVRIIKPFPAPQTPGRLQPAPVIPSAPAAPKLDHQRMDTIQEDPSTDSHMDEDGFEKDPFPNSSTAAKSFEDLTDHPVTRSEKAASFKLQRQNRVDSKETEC

| SMILES | IC50 [1] [nM] | IC50 [2] [nM] | IC50 [3] [nM] |
| --- | --- | --- | --- |
| CC1CN(C(=O)CCC2(c3cccnc3)NC(=O)NC2=O)CCN1c1cc(Cl)cc(Cl)c1 (stereo not drawn) [compound 127, 5-[3-[4-(3,5-dichlorophenyl)-3-methyl-piperazin-1-yl]-3-oxo-propyl]-5-(3-pyridyl)imidazolidine-2,4-dione] | > 20000 | > 4000 |  |
| CC1(CCC(=O)N2CCN(c3cc(F)cc(F)c3)CC2)NC(=O)NC1=O (stereo not drawn) [compound 140, 5-[3-[4-(3,5-difluorophenyl)piperazin-1-yl]-3-oxo-propyl]-5-methyl-imidazolidine-2,4-dione] | > 4000 | > 20000 |  |
| O=C1NC(=O)C(CCC(=O)N2CCN(c3cccc(Cl)c3)CC2)(CN2CCOCC2)N1 (stereo not drawn) [compound 155, 5-[3-[4-(3-chlorophenyl)piperazin-1-yl]-3-oxo-propyl]-5-(morpholinomethyl)imidazolidine-2,4-dione] | > 20000 | > 20000 | 1250 |
| C[C@H]1CN(C(=O)CCC2(C)NC(=O)NC2=O)CCN1c1ccc(F)c(F)c1 (stereo partly drawn) [compound 165, 5-[3-[(3S)-4-(3,4-difluorophenyl)-3-methyl-piperazin-1-yl]-3-oxo-propyl]-5-methyl-imidazolidine-2,4-dione] | > 20000 | > 20000 | 207 |
| C[C@H]1CN(C(=O)CCC2(C)NC(=O)NC2=O)CCN1c1ccc(F)c(Cl)c1 (stereo partly drawn) [compound 166, 5-[3-[(3S)-4-(3-chloro-4-fluoro-phenyl)-3-methyl-piperazin-1-yl]-3-oxo-propyl]-5-methyl-imidazolidine-2,4-dione] | > 20000 | > 20000 | 264 |
| NCC1(CCC(=O)N2CCN(c3cccc(Cl)c3)CC2)NC(=O)NC1=O (stereo not drawn) [compound 171, 5-(aminomethyl)-5-[3-[4-(3-chlorophenyl)piperazin-1-yl]-3-oxo-propyl]imidazolidine-2,4-dione] | > 4000 | > 20000 | 305 |
| O=C1NC(=O)C(CC(O)C(=O)N2CCN(c3cc(Cl)cc(Cl)c3)CC2)(C2CC2)N1 (stereo not drawn) [compound 201, 5-cyclopropyl-5-[3-[4-(3,5-dichlorophenyl)piperazin-1-yl]-2-hydroxy-3-oxo-propyl]imidazolidine-2,4-dione] | > 20000 | > 20000 | 307 |
| CC1(CC(CO)C(=O)N2CCN(c3cc(Cl)cc(Cl)c3)CC2)NC(=O)NC1=O (stereo not drawn) [compound 220, 5-[3-[4-(3,5-dichlorophenyl)piperazin-1-yl]-2-(hydroxymethyl)-3-oxo-propyl]-5-methyl-imidazolidine-2,4-dione] | > 4000 | 245 | 18 |
| COCC1(CC(C)C(=O)N2CCN(c3cc(Cl)cc(Cl)c3)CC2)NC(=O)NC1=O (stereo not drawn) [compound 222, 5-[3-[4-(3,5-dichlorophenyl)piperazin-1-yl]-2-methyl-3-oxo-propyl]-5-(methoxymethyl)imidazolidine-2,4-dione] | > 4000 | 337 | 20 |
| COCC1(CC(C)C(=O)N2CCN(c3cc(F)cc(F)c3)[C@@H](C)C2)NC(=O)NC1=O (stereo partly drawn) [compound 225, 5-[3-[(3S)-4-(3,5-difluorophenyl)-3-methyl-piperazin-1-yl]-2-methyl-3-oxo-propyl]-5-(methoxymethyl)imidazolidine-2,4-dione] | 3940 | > 20000 | 28 |
| CC(CC1(c2ccccn2)NC(=O)NC1=O)C(=O)N1CCN(c2cc(Cl)cc(Cl)c2)CC1 (stereo not drawn) [compound 231, 5-[3-[4-(3,5-dichlorophenyl)piperazin-1-yl]-2-methyl-3-oxo-propyl]-5-(2-pyridyl)imidazolidine-2,4-dione] | 766 | 106 | 20 |
| CCC(CC1(C)NC(=O)NC1=O)C(=O)N1CCN(c2cc(Cl)cc(Cl)c2)CC1 (stereo not drawn) [compound 236, 5-[2-[4-(3,5-dichlorophenyl)piperazine-1-carbonyl]butyl]-5-methyl-imidazolidine-2,4-dione] | 1220 | 225 | 15 |
| O=C1NC(=O)C(CCC(=O)N2CCN(c3cc(Cl)cc(Cl)c3)CC2)(c2ccccn2)N1 (stereo not drawn) [compound 407, 5-(3-(4-(3,5-dichlorophenyl)piperazin-1-yl)-3-oxopropyl)-5-(pyridin-2-yl)imidazolidine-2,4-dione] | > 20000 | 479 |  |
| C[C@H]1CN(C(=O)CCC2(C3CC3)NC(=O)NC2=O)CCN1c1ccc(Cl)c(Cl)c1 (stereo partly drawn) [compound 408, 5-cyclopropyl-5-(3-((S)-4-(3,4-dichlorophenyl)-3-methylpiperazin-1-yl)-3-oxopropyl)imidazolidine-2,4-dione] | > 4000 | > 4000 | 19 |
| CC(CC1(C2CC2)NC(=O)NC1=O)C(=O)N1CCN(c2cc(Cl)cc(Cl)c2)CC1 (stereo not drawn) [compound 409, 5-cyclopropyl-5-(3-(4-(3,5-dichlorophenyl)piperazin-1-yl)-2-methyl-3-oxopropyl)imidazolidine-2,4-dione] | 2740 | 311 | 17 |
| CC(CC1(C)NC(=O)NC1=O)C(=O)N1CCN(c2cc(Cl)cc(Cl)c2)CC1 (stereo not drawn) [compound 410, 5-(3-(4-(3,5-dichlorophenyl)piperazin-1-yl)-2-methyl-3-oxopropyl)-5-methylimidazolidine-2,4-dione] | > 4000 | 170 | 22 |
| CC(CC1(C2CC2)NC(=O)NC1=O)C(=O)N1CCN(c2ccc(F)c(Cl)c2)[C@@H](C)C1 (stereo partly drawn) [compound 411, 5-(3-((S)-4-(3-chloro-4-fluorophenyl)-3-methylpiperazin-1-yl)-2-methyl-3-oxopropyl)-5-cyclopropylimidazolidine-2,4-dione] | 865 | > 4000 | 11 |
| CC(CC1(C2CC2)NC(=O)NC1=O)C(=O)N1CCN(c2ccc(Cl)cc2)[C@@H](C)C1 (stereo partly drawn) [compound 412, 5-(3-((S)-4-(4-chlorophenyl)-3-methylpiperazin-1-yl)-2-methyl-3-oxopropyl)-5-cyclopropylimidazolidine-2,4-dione] | 433 | > 20000 | 13 |
| CC(CC1(C2CC2)NC(=O)NC1=O)C(=O)N1CCN(c2cc(F)cc(Cl)c2)[C@@H](C)C1 (stereo partly drawn) [compound 413, 5-(3-((S)-4-(3-chloro-5-fluorophenyl)-3-methylpiperazin-1-yl)-2-methyl-3-oxopropyl)-5-cyclopropylimidazolidine-2,4-dione] | 952 | > 4000 | 11 |
| C[C@H]1CN(C(=O)CC[C@@]2(C)NC(=O)NC2=O)CCN1c1ccc(Cl)c(Cl)c1 [compound 414, (R)-5-(3-((S)-4-(3,4-dichlorophenyl)-3-methylpiperazin-1-yl)-3-oxopropyl)-5-methylimidazolidine-2,4-dione] | > 4000 | > 4000 | 40 |
| CC(CC1(COCc2ccccc2)NC(=O)NC1=O)C(=O)N1CCN(c2cc(Cl)cc(Cl)c2)CC1 (stereo not drawn) [compound 415, 5-(benzyloxymethyl)-5-(3-(4-(3,5-dichlorophenyl)piperazin-1-yl)-2-methyl-3-oxopropyl)imidazolidine-2,4-dione] | 1300 | 396 | 28 |
| C[C@H]1CN(C(=O)CC[C@@]2(C3CC3)NC(=O)NC2=O)CCN1c1ccc(Cl)c(Cl)c1 [compound 416, 5-cyclopropyl-5-(3-((S)-4-(3,4-dichlorophenyl)-3-methylpiperazin-1-yl)-3-oxopropyl)imidazolidine-2,4-dione] | 2880 | > 4000 | 12 |
| CC(CC1(C)NC(=O)NC1=O)C(=O)N1CCN(c2cc(F)cc(Cl)c2)[C@@H](C)C1 (stereo partly drawn) [compound 418, 5-(3-((S)-4-(3-chloro-5-fluorophenyl)-3-methylpiperazin-1-yl)-2-methyl-3-oxopropyl)-5-methylimidazolidine-2,4-dione] | > 4000 | > 4000 | 33 |
| CC(CC1(C)NC(=O)NC1=O)C(=O)N1CCN(c2cc(Cl)cc(Cl)c2)[C@@H](C)C1 (stereo partly drawn) [compound 420, 5-(3-((S)-4-(3,5-dichlorophenyl)-3-methylpiperazin-1-yl)-2-methyl-3-oxopropyl)-5-methylimidazolidine-2,4-dione] | > 14000 | 2980 | 32 |
| CC(CC1(C)NC(=O)NC1=O)C(=O)N1CCN(c2ccc(F)c(Cl)c2)[C@@H](C)C1 (stereo partly drawn) [compound 422, 5-(3-((S)-4-(3-chloro-4-fluorophenyl)-3-methylpiperazin-1-yl)-2-methyl-3-oxopropyl)-5-methylimidazolidine-2,4-dione] | 2330 | > 4000 | 21 |
| Cc1c(Cl)cc(Cl)cc1N1CCN(C(=O)C(C)CC2(C)NC(=O)NC2=O)C[C@@H]1C (stereo partly drawn) [compound 423, 5-(3-((S)-4-(3,5-dichloro-2-methylphenyl)-3-methylpiperazin-1-yl)-2-methyl-3-oxopropyl)-5-methylimidazolidine-2,4-dione] | > 20000 | 1470 | 58 |
| CC1(CC(COCc2ccccc2)C(=O)N2CCN(c3cc(Cl)cc(Cl)c3)CC2)NC(=O)NC1=O (stereo not drawn) [compound 424, 5-(2-(benzyloxymethyl)-3-(4-(3,5-dichlorophenyl)piperazin-1-yl)-3-oxopropyl)-5-methylimidazolidine-2,4-dione] | > 20000 | > 10800 | 53 |
| CC1(CC(CO)C(=O)N2CCN(c3cc(Cl)cc(Cl)c3)CC2)NC(=O)NC1=O (stereo not drawn) [compound 425, 5-(3-(4-(3,5-dichlorophenyl)piperazin-1-yl)-2-(hydroxymethyl)-3-oxopropyl)-5-methylimidazolidine-2,4-dione] | > 4000 | 245 | 18 |
| COCC1(CC(C)C(=O)N2CCN(c3cc(Cl)cc(Cl)c3)CC2)NC(=O)NC1=O (stereo not drawn) [compound 427, 5-(3-(4-(3,5-dichlorophenyl)piperazin-1-yl)-2-methyl-3-oxopropyl)-5-(methoxymethyl)imidazolidine-2,4-dione] | > 4000 | 337 | 20 |
